Measurements from article PMC8745330, “Aromatic Sulfonamides including a Sulfonic Acid Tail: New Membrane Impermeant Carbonic Anhydrase Inhibitors for Targeting Selectively the Cancer-Associated Isoforms” (International Journal of Molecular Sciences, 2021).
Counter-ions that a name gives are not always drawn.

Legend:
[1] = biological target: T1, hCA IX (Homo sapiens, UniProt Q16790); experiment: stopped flow CO2 hydrase assay, CA IX; type: biochemical; settings: for Ki: stopped flow CO2 hydrase assay, mean from 3 different assays, errors ±5–10%; for Selectivity index (SI) CA II/CA IX / Selectivity index (SI) CA I/CA IX: ratio between KI values
T1 construct: made in house
Description: (§1) An Applied Photophysics stopped-flow instrument was used for assaying the CA catalyzed CO2 hydration activity. Phenol red (at a concentration of 0.2 mM) was used as an indicator, working at the absorbance maximum of 557 nm, with 20 mM HEPES (pH 7.5) as buffer, and 20 mM Na2SO4 (for maintaining constant the ionic strength), following the initial rates of the CA-catalyzed CO2 hydration reaction for a period of 10–100 s. The CO2 concentrations ranged from 1.7 to 17 mM for the determination of the kinetic parameters and inhibition constants. For each inhibitor, at least six traces of the initial 5–10% of the reaction were used for determining the initial velocity. The uncatalyzed rates were determined in the same manner and subtracted from the total observed rates. Stock solutions of inhibitor (0.1 mM) were prepared in distilled–deionized water, and dilutions up to 0.01 nM were done thereafter with the assay buffer. Inhibitor and enzyme solutions were preincubated together for 45 min at room temperature prior to assay in order to allow for the formation of the E–I complex. The inhibition constants were obtained by non-linear least-squares methods using PRISM 3 and the Cheng–Prusoff equation, as reported earlier, representing the mean from at least three different determinations. […] All CA isoforms were recombinant ones obtained in-house, as reported earlier.

[2] = biological target: T2, hCA IV (Homo sapiens, UniProt P22748); experiment: stopped flow CO2 hydrase assay, CA IV; type: biochemical; settings: mean from 3 different assays, errors ±5–10%
T2 construct: made in house
T2 sequence (P22748 19-312): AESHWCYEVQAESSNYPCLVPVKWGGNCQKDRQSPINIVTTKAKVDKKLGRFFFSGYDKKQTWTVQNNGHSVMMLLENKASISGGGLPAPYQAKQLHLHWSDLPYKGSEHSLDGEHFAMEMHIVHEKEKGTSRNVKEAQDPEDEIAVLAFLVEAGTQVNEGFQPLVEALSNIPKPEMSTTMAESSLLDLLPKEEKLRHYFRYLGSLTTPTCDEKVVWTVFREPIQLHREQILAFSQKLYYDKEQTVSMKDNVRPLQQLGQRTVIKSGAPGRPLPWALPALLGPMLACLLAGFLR
Description: as §1

[3] = biological target: T3, hCA XII (Homo sapiens, UniProt O43570); experiment: stopped flow CO2 hydrase assay, CA XII; type: biochemical; settings: for Ki: stopped flow CO2 hydrase assay, mean from 3 different assays, errors ±5–10%; for Selectivity index (SI) CA I/CA XII / Selectivity index (SI) CA II/CA XII: ratio between KI values
T3 construct: made in house
T3 sequence (O43570 25-354): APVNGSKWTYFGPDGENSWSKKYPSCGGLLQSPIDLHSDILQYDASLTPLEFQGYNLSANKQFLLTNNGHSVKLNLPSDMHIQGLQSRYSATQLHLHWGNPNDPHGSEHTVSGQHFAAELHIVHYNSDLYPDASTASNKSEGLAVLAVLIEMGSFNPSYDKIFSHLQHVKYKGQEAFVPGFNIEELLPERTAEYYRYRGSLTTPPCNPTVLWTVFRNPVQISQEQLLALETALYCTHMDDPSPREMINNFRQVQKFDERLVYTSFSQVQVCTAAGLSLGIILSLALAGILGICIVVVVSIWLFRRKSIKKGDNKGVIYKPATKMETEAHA
Description: as §1

[4] = biological target: T4, hCA I (Homo sapiens, UniProt P00915); experiment: stopped flow CO2 hydrase assay, CA I; type: biochemical; settings: mean from 3 different assays, errors ±5–10%
T4 construct: made in house
T4 sequence (P00915 whole entry): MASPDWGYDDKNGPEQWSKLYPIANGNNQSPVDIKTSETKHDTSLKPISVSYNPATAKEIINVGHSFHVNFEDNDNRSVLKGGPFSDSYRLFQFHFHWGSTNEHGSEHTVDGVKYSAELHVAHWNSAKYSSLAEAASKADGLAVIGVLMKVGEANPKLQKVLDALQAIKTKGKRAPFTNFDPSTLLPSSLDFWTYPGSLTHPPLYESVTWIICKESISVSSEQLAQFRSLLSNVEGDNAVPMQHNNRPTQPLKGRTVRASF
Description: as §1

[5] = biological target: T5, hCA II (Homo sapiens, UniProt P00918); experiment: stopped flow CO2 hydrase assay, CA II; type: biochemical; settings: mean from 3 different assays, errors ±5–10%
T5 construct: made in house
Description: as §1

| Molecule | Ki [1] | Ki [2] | Ki [3] | Ki [4] | Ki [5] | Selectivity index (SI) CA II/CA IX [1] | Selectivity index (SI) CA I/CA XII [3] | Selectivity index (SI) CA II/CA XII [3] | melting point | Selectivity index (SI) CA I/CA IX [1] |
| --- | --- | --- | --- | --- | --- | --- | --- | --- | --- | --- |
| Sodium 3-(4-((4-(3-(4-sulfamoylphenyl)ureido)phenoxy)methyl)-1H-1,2,3-triazol-1-yl)butane-1-sulfonate [Compound 49] | 32.2 nM | 4540 nM | 53.2 nM | 91.9 nM | 18.8 nM | – | – | – | – | – |
| NS(=O)(=O)c1ccc(NC(=S)NCc2cn(CCCS(=O)(=O)[O-])nn2)cc1.[Na+] [Compound 37, Sodium 3-(4-((3-(4-sulfamoylphenyl)thioureido)methyl)-1H-1,2,3-triazol-1-yl)propane-1-sulfonate] | 51.2 nM | 78.1 nM | 9.4 nM | 79.9 nM | 21.4 nM | 0.42 | 8.5 | 2.2 | 230 to 232 °C | – |
| Sodium 3-(4-((3-(4-sulfamoylphenethyl)ureido)methyl)-1H-1,2,3-triazol-1-yl)butane-1-sulfonate [Compound 47] | 68.1 nM | 473 nM | 64 nM | 82.3 nM | 41.3 nM | – | – | – | – | – |
| C#CCNC(=S)Nc1ccc(S(N)(=O)=O)cc1 [Compound 29] | – | – | – | – | – | – | – | – | 235 to 238 °C | – |
| Sodium 3-(4-((3-(4-sulfamoylphenyl)thioureido)methyl)-1H-1,2,3-triazol-1-yl)butane-1-sulfonate [Compound 48] | 8.8 nM | 557 nM | 31.5 nM | 62.4 nM | 5.8 nM | – | – | – | – | – |
| Sodium 3-(4-((3-(4-sulfamoylbenzyl)ureido)methyl)-1H-1,2,3-triazol-1-yl)butane-1-sulfonate [Compound 46] | 133 nM | 636 nM | 31.3 nM | 651 nM | 332 nM | – | – | – | – | – |
| Sodium 3-(4-((3-(4-sulfamoylphenyl)ureido)methyl)-1H-1,2,3-triazol-1-yl)butane-1-sulfonate [Compound 45] | 372 nM | 150 nM | 33.6 nM | 496 nM | 41.1 nM | 0.11 | 14 | 1.2 | – | 1.3 |
| Sodium 3-(4-((4-sulfamoylphenoxy)methyl)-1H-1,2,3-triazol-1-yl)butane-1-sulfonate [Compound 42] | 60.2 nM | 750 nM | 23.1 nM | 96.8 nM | 29.5 nM | 0.49 | 4.1 | 1.2 | – | 1.6 |
| Sodium 3-(4-((4-sulfamoylbenzamido)methyl)-1H-1,2,3-triazol-1-yl)butane-1-sulfonate [Compound 44] | 50.7 nM | 651 nM | 32.2 nM | 168 nM | 22.5 nM | 0.44 | 5.2 | 0.70 | – | 3.3 |

Next, values leading:

| Ki [1] | Ki [2] | Ki [3] | Ki [4] | Ki [5] | Selectivity index (SI) CA II/CA IX [1] | Selectivity index (SI) CA I/CA XII [3] | Selectivity index (SI) CA II/CA XII [3] | melting point | Selectivity index (SI) CA I/CA IX [1] | Molecule |
| --- | --- | --- | --- | --- | --- | --- | --- | --- | --- | --- |
| 236 nM | > 10000 nM | 7.3 nM | 3650 nM | 39.9 nM | – | – | – | – | – | CCC(=O)Nc1cc(S(N)(=O)=O)ccc1OCc1cn(CCCCS(=O)(=O)O)nn1 [Compound 51] |
| 82.5 nM | 3560 nM | 40.6 nM | 7690 nM | 263 nM | 3.2 | – | 6.5 | – | – | CC(=O)Nc1cc(S(N)(=O)=O)ccc1OCc1cn(CCCCS(=O)(=O)O)nn1 [Compound 50] |
| – | – | – | – | – | – | – | – | > 300 °C | – | CC(=O)Nc1cc(S(N)(=O)=O)ccc1OCc1cn(CCCCS(=O)(=O)O)nn1 (as salt: sodium) [Compound 50] |
| – | – | – | – | – | – | – | – | > 300 °C | – | CCC(=O)Nc1cc(S(N)(=O)=O)ccc1OCc1cn(CCCCS(=O)(=O)O)nn1 (as salt: sodium) [Compound 51] |
